Experimental data taken from patent US8853203B2, “Diazepinone derivatives” (Novartis AG, priority 2012, dated 2014).

Legend:
human mGluR5a receptors = human mGluR5a receptors (Homo sapiens (Human), UniProt P41594); test: inhibition of glutamate-induced elevation of intracellular calcium in L(tk-) cells expressing human mGluR5a; type: cell-based; details: for IC50: glutamate-induced intracellular calcium elevation, L(tk-) cells expressing human mGluR5a, read-out: mGluR5 IC50; for inhibition at 10 µM: LTK, read-out: mGluR5 % inhibition at 10 μM
Sequence of human mGluR5a receptors (P41594 other isoform, or with tags, fused parts or gaps): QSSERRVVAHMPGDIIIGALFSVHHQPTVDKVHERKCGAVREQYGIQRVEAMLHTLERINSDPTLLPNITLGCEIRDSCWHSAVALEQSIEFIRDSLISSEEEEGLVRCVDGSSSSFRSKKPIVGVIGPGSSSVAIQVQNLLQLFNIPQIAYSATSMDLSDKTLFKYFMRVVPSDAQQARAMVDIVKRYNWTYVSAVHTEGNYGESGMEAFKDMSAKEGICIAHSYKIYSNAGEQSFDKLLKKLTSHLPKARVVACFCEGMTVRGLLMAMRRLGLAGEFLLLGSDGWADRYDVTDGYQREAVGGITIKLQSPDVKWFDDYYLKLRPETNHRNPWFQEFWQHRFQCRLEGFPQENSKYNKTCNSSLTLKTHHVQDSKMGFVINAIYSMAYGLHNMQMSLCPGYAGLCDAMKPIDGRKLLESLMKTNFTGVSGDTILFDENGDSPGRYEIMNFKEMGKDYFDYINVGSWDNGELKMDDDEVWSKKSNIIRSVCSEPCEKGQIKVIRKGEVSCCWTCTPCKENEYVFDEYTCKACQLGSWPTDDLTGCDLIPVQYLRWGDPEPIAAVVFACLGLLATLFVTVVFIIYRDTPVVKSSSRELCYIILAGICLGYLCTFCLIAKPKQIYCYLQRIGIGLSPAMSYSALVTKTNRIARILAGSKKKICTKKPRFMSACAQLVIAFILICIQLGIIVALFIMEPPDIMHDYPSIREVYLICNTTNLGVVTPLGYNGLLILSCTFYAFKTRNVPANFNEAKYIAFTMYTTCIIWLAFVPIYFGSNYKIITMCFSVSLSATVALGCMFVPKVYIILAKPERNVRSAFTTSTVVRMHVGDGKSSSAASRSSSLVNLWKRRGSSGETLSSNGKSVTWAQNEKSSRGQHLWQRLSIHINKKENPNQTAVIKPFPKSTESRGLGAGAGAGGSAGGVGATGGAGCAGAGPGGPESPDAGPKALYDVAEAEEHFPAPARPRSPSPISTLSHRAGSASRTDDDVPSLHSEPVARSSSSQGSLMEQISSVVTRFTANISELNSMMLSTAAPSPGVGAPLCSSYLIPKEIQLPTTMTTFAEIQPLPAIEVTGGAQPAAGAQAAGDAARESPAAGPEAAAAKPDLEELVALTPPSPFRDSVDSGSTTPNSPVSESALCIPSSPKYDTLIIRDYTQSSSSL
Text: Activity of compounds of the present invention was examined by determination to what extent the glutamate-induced elevation of the intracellular calcium concentration in L(tk-) cells expressing human mGluR5a receptors (see L. P. Daggett et al., Neuropharm. Vol. 34, pages 871-886, 1995) is inhibited by utilizing methods as described e.g. by L. P. Daggett et al., Neuropharm. Vol. 34, pages 871-886 (1995) and P. J. Flor et al., J. Neurochem. Vol. 67, pages 58-63 (1996).

human mGluR1 = human mGluR1 (Homo sapiens (Human), UniProt Q13255); test: mGluR1 antagonism, L-glutamate induced intracellular calcium increase (FLIPR) in CHO cells stably expressing human mGluR1; type: cell-based; details: for IC50: L-glutamate induced intracellular calcium, CHO cells expressing human mGluR1, FLIPR
Sequence of human mGluR1 (Q13255 19-1194): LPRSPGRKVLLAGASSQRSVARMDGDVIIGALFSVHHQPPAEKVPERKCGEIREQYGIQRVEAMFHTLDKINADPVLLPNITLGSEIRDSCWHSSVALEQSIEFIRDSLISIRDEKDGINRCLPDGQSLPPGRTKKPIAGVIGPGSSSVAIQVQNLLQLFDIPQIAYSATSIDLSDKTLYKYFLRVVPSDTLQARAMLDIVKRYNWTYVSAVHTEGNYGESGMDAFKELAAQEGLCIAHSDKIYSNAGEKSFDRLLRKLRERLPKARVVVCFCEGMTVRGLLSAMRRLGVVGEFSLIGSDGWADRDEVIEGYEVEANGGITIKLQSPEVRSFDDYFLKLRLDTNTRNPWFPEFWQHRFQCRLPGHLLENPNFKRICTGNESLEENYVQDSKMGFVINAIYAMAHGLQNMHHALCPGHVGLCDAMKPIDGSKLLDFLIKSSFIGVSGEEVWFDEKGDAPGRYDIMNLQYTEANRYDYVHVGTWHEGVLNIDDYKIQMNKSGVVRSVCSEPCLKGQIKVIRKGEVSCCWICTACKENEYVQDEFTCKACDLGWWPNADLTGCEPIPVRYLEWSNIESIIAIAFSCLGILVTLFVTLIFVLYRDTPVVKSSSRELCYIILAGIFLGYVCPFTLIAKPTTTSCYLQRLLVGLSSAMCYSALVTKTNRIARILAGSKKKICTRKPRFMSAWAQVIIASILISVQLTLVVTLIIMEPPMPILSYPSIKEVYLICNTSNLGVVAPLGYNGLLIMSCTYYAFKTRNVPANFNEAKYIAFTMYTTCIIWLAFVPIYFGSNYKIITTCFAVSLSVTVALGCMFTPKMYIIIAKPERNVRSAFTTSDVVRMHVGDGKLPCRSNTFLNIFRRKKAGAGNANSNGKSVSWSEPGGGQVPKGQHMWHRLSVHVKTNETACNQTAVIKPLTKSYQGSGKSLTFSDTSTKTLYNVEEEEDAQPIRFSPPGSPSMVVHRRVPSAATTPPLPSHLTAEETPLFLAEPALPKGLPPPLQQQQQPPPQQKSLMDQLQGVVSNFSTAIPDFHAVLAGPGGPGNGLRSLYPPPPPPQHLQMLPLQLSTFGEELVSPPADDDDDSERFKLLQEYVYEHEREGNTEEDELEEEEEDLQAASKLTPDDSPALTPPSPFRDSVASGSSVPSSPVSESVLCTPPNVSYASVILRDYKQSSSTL
Text: Activity of compounds of the present invention with respect to mGluR1 antagonism was examined by an assay based on measurements of L-glutamate induced intracellular calcium increases using a 96 well plate-based Fluorometric Imaging Plate Reader (FLIPR), and CHO cells stably expressing human mGluR1. L-glutamate induced robust calcium responses via human mGluR1 in a concentration-dependent manner and in the low micromolar range. The table below represents IC50 values of the inhibition of the glutamate-induced elevation of the intracellular calcium concentration.

Row | SMILES | IC50 (human mGluR5a receptors) [nM] | IC50 (human mGluR1) [nM] | inhibition at 10 µM (human mGluR5a receptors) [%] | inhibition at 10 µM (human mGluR1; CHO) [%]
1 | O=C1CN=C(n2cnc(C3CC3)n2)C=C2c3ccc(F)c(-c4cccnc4F)c3CCN12 [Example 99q, 2-(3-cyclopropyl-1H-1,2,4-triazol-1-yl)-10-fluoro-9-(2-fluoropyridin-3-yl)-7,8-dihydro-[1,4]diazepino[7,1-a]isoquinolin-5(4H)-one] | 88 | > 6000 |  | 
2 | COCc1cn(C2=NCC(=O)N3CCc4c(cccc4-c4cscn4)C3=C2)cn1 [Example 101, 2-(4-(methoxymethyl)-1H-imidazol-1-yl)-9-(thiazol-4-yl)-7,8-dihydro-[1,4]diazepino[7,1-a]isoquinolin-5(4H)-one] | 26 | > 10000 |  | 
3 | O=C1CN=C(n2cnc(COC(F)(F)F)c2)C=C2c3cccc(C4CC4)c3CCN12 [Example 131, 9-cyclopropyl-2-(4-((trifluoromethoxy)methyl)-1H-imidazol-1-yl)-7,8-dihydro-[1,4]diazepino[7,1-a]isoquinolin-5(4H)-one] | 46 | > 2000 |  | 
4 | CC(=O)c1cccc2c1CCN1C(=O)CN=C(n3cnc(C4CCC4)c3)C=C21 [Example 117, 9-acetyl-2-(4-cyclobutyl-1H-imidazol-1-yl)-7,8-dihydro-[1,4]diazepino[7,1-a]isoquinolin-5(4H)-one] | 35 | 660 |  | 
5 | O=C1CN=C(n2cnc(C3CC3)n2)C=C2c3cccc(-c4ccc(F)cn4)c3CCN12 [Example 133, 2-(3-cyclopropyl-1H-1,2,4-triazol-1-yl)-9-(5-fluoropyridin-2-yl)-7,8-dihydro-[1,4]diazepino[7,1-a]isoquinolin-5(4H)-one] | 215 | > 10000 |  | 
6 | O=C1CN=C(n2cnc(C3CC3)c2)C=C2c3ccnc(-c4ccc(F)nc4)c3CCN12 [Example 110, 2-(4-cyclopropyl-1H-imidazol-1-yl)-9-(6-fluoropyridin-3-yl)-7,8-dihydro-[1,4]diazepino[7,1-a][2,6]naphthyridin-5(4H)-one] | 270 | > 10000 |  | 
7 | CCc1cccc2c1CCN1C(=O)CN=C(n3cnc(C(C)C)c3)C=C21 [Example 89, 9-ethyl-2-(4-isopropyl-1H-imidazol-1-yl)-7,8-dihydro-[1,4]diazepino[7,1-a]isoquinolin-5(4H)-one] | 28 | 650 |  | 
8 | O=C1CN=C(n2cnc(C(F)F)c2)C=C2c3cccc(C4CC4)c3CCN12 [Example 99l, 9-cyclopropyl-2-(4-(difluoromethyl)-1H-imidazol-1-yl)-7,8-dihydro-[1,4]diazepino[7,1-a]isoquinolin-5(4H)-one] | 2 | 702 |  | 
9 | O=C1CN=C(n2cnc(C(O)C3CC3)c2)C=C2c3cccc(C4CC4)c3CCN12 (stereo not drawn) [Example 130, 9-cyclopropyl-2-(4-(cyclopropyl(hydroxy)methyl)-1H-imidazol-1-yl)-7,8-dihydro-[1,4]diazepino[7,1-a]isoquinolin-5(4H)-one] | 27 | 3310 |  | 
10 | C=C(C)c1cccc2c1CCN1C(=O)CN=C(n3cnc([C@H](C)OC)c3)C=C21 [Example 119, (S)-2-(4-(1-methoxyethyl)-1H-imidazol-1-yl)-9-(prop-1-en-2-yl)-7,8-dihydro-[1,4]diazepino[7,1-a]isoquinolin-5(4H)-one] | 24 | 2600 |  | 
11 | O=C1CN=C(n2cnc(C3CC3)c2)C=C2c3cccc(-c4cc[nH]n4)c3CCN12 [Example 99e, 2-(4-cyclopropyl-1H-imidazol-1-yl)-9-(1H-pyrazol-3-yl)-7,8-dihydro-[1,4]diazepino[7,1-a]isoquinolin-5(4H)-one] | 127 | 8260 |  | 
12 | O=C1CN=C(n2cnc(C3CC3)c2)C=C2c3cccc(-c4cnco4)c3CCN12 [Example 109, 2-(4-cyclopropyl-1H-imidazol-1-yl)-9-(oxazol-5-yl)-7,8-dihydro-[1,4]diazepino[7,1-a]isoquinolin-5(4H)-one] | 10 | 1800 |  | 
13 | COc1cccc2c1CCN1C(=O)CN=C(n3cnc(C(C)C)c3)C=C21 [Example 61, 2-(4-isopropyl-1H-imidazol-1-yl)-9-methoxy-7,8-dihydro-[1,4]diazepino[7,1-a]isoquinolin-5(4H)-one] | 345 | 3100 |  | 
14 | Cn1ccc(C2=NCC(=O)N3CCc4c(cccc4N4CCOCC4)C3=C2)n1 [Example 24, 2-(1-methyl-1H-pyrazol-3-yl)-9-morpholino-7,8-dihydro-[1,4]diazepino[7,1-a]isoquinolin-5(4H)-one] | 35 | > 10000 |  | 
15 | CC(=O)c1cccc2c1CCN1C(=O)CN=C(n3cnc(C)c3)C=C21 [Example 116, 9-acetyl-2-(4-methyl-1H-imidazol-1-yl)-7,8-dihydro-[1,4]diazepino[7,1-a]isoquinolin-5(4H)-one] | 410 | > 10000 |  | 
16 | O=C1CN=C(n2cnc(C3CC3)n2)C=C2c3cccc(-c4cc(F)ccn4)c3CCN12 [Example 135, 2-(3-cyclopropyl-1H-1,2,4-triazol-1-yl)-9-(4-fluoropyridin-2-yl)-7,8-dihydro-[1,4]diazepino[7,1-a]isoquinolin-5(4H)-one] | 829 | > 10000 |  | 
17 | CCOCc1cn(C2=NCC(=O)N3CCc4c(cccc4-c4nccs4)C3=C2)cn1 [Example 88j, 2-(4-(ethoxymethyl)-1H-imidazol-1-yl)-9-(thiazol-2-yl)-7,8-dihydro-[1,4]diazepino[7,1-a]isoquinolin-5(4H)-one] | 56 | 1860 |  | 

The next lines start with the values.

Row | IC50 (human mGluR5a receptors) [nM] | IC50 (human mGluR1) [nM] | inhibition at 10 µM (human mGluR5a receptors) [%] | inhibition at 10 µM (human mGluR1; CHO) [%] | SMILES
18 | 1300 | > 10000 |  |  | COc1cccc(C2=NCC(=O)N3CCc4c(cccc4-c4ccccc4)C3=C2)c1 [Example 49, 2-(3-methoxyphenyl)-9-phenyl-7,8-dihydro-[1,4]diazepino[7,1-a]isoquinolin-5(4H)-one]
19 | 71 | 3400 |  |  | COC(C)c1cccc2c1CCN1C(=O)CN=C(c3ccn(C)n3)C=C21 (stereo not drawn) [Example 47, 9-(1-methoxyethyl)-2-(1-methyl-1H-pyrazol-3-yl)-7,8-dihydro-[1,4]diazepino[7,1-a]isoquinolin-5(4H)-one]
20 | 50 | 22 |  |  | C#Cc1cccc2c1CCN1C(=O)CN=C(c3cccs3)C=C21 [Example 38, 9-ethynyl-2-(thiophen-2-yl)-7,8-dihydro-[1,4]diazepino[7,1-a]isoquinolin-5(4H)-one]
21 |  | 6500 | 23 |  | COc1cccc(C2=NCC(=O)N3CCc4c(ccc(OC)c4OC)C3=C2)c1 [Example 59, 9,10-dimethoxy-2-(3-methoxyphenyl)-7,8-dihydro-[1,4]diazepino[7,1-a]isoquinolin-5(4H)-one]
22 | 68 | > 10000 |  |  | COC1(c2cn(C3=NCC(=O)N4CCc5c(cccc5-c5ccc(F)nc5)C4=C3)cn2)CC1 [Example 106a, 9-(6-fluoropyridin-3-yl)-2-(4-(1-methoxycyclopropyl)-1H-imidazol-1-yl)-7,8-dihydro-[1,4]diazepino[7,1-a]isoquinolin-5(4H)-one]
23 | 90 | 8 |  |  | O=C1CN=C(c2cccs2)C=C2c3cccc(Br)c3CCN12 [Example 29, 9-bromo-2-(thiophen-2-yl)-7,8-dihydro-[1,4]diazepino[7,1-a]isoquinolin-5(4H)-one]
24 | 182 | > 10000 |  |  | O=C1CN=C(n2cnc(-c3ncco3)c2)C=C2c3cccc(-c4cccnc4F)c3CCN12 [Example 106, 9-(2-fluoropyridin-3-yl)-2-(4-(oxazol-2-yl)-1H-imidazol-1-yl)-7,8-dihydro-[1,4]diazepino[7,1-a]isoquinolin-5(4H)-one]
25 | 36 | > 10000 |  |  | Cc1cn(C2=NCC(=O)N3CCc4c(cccc4-c4ccc(F)nc4)C3=C2)cn1 [Example 81, 9-(6-fluoropyridin-3-yl)-2-(4-methyl-1H-imidazol-1-yl)-7,8-dihydro-[1,4]diazepino[7,1-a]isoquinolin-5(4H)-one]
26 | 4900 | > 10000 |  |  | Cn1cnc(C2=NCC(=O)N3CCc4c(cccc4-c4ccncc4)C3=C2)c1 [Example 55, 2-(1-methyl-1H-imidazol-4-yl)-9-(pyridin-4-yl)-7,8-dihydro-[1,4]diazepino[7,1-a]isoquinolin-5(4H)-one]
27 | 170 | 690 |  |  | COc1cccc2c1CCN1C(=O)CN=C(c3ccn(C)n3)C=C21 [Example 11, 9-methoxy-2-(1-methyl-1H-pyrazol-3-yl)-7,8-dihydro-[1,4]diazepino[7,1-a]isoquinolin-5(4H)-one]
28 | 34 | 4200 |  |  | COCCc1cn(C2=NCC(=O)N3CCc4c(cccc4-c4cscn4)C3=C2)cn1 [Example 76, 2-(4-(2-methoxyethyl)-1H-imidazol-1-yl)-9-(thiazol-4-yl)-7,8-dihydro-[1,4]diazepino[7,1-a]isoquinolin-5(4H)-one]
29 |  |  | 27 | 15 | COc1cccc2c1CCN1C(=O)CN=C(c3cc[nH]c(=O)c3)C=C21 [Example 60, 9-methoxy-2-(2-oxo-1,2-dihydropyridin-4-yl)-7,8-dihydro-[1,4]diazepino[7,1-a]isoquinolin-5(4H)-one]
30 | 145 | > 10000 |  |  | Cc1cn(C2=NCC(=O)N3CCc4c(cccc4-c4ccncc4)C3=C2)cn1 [Example 80, 2-(4-methyl-1H-imidazol-1-yl)-9-(pyridin-4-yl)-7,8-dihydro-[1,4]diazepino[7,1-a]isoquinolin-5(4H)-one]
